According to ChEMBL document CHEMBL5360672, “Identification of Novel Dual-Target Estrogen Receptor α Degraders with Tubulin Inhibitory Activity for the Treatment of Endocrine-Resistant Breast Cancer” (J Med Chem, 2023):

Target: T1, Estrogen receptor (Homo sapiens) (UniProt P03372)
T1 sequence (whole entry): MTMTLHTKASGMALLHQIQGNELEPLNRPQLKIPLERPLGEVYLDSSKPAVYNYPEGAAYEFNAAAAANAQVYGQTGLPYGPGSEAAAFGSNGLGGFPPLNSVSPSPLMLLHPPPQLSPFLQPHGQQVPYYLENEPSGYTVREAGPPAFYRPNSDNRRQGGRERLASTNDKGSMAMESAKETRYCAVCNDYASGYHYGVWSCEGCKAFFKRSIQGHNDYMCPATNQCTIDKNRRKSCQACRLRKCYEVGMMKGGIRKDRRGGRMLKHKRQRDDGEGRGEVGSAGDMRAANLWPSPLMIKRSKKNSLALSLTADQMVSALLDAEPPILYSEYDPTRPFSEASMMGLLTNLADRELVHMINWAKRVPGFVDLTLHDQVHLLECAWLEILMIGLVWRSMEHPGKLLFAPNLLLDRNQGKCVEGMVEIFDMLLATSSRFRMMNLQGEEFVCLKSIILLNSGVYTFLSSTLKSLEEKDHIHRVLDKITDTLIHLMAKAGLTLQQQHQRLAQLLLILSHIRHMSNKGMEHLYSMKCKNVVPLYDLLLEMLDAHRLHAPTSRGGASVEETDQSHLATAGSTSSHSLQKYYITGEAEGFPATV
Experiment: Binding affinity to human ERalpha assessed as relative binding affinity incubated under vibration for 1 min followed by 2 hrs incubation under dark condition by fluorescence polarization assay relative to estradiol
Settings: time 121.0 min

| Compound | RBA [%] |
| --- | --- |
| N#C[Se]CCCCCC(=O)Nc1ccc(C2=C(c3ccc(O)cc3)C3CC(S(=O)(=O)Oc4ccccc4O)C2O3)cc1 (centres undefined) | 30.9 |
| COc1ccccc1OS(=O)(=O)C1CC2OC1C(c1ccc(NC(=O)CCCCC[Se]C#N)cc1)=C2c1ccc(O)cc1 (centres undefined) | 16 |
| N#C[Se]CCCCCC(=O)Nc1ccc(C2=C(c3ccc(O)cc3)C3CC(S(=O)(=O)Oc4ccc(C(F)(F)F)cc4)C2O3)cc1 (centres undefined) | 4.43 |
| N#C[Se]CCCCCC(=O)Nc1ccc(C2=C(c3ccc(O)cc3)C3CC(S(=O)(=O)Oc4ccc(O)cc4)C2O3)cc1 (centres undefined) | 7.83 |
| N#C[Se]CCCCCC(=O)Nc1ccc(C2=C(c3ccc(O)cc3)C3CC(S(=O)(=O)Oc4ccc(F)cc4)C2O3)cc1 (centres undefined) | 2.05 |
| N#C[Se]CCCCCC(=O)Nc1ccc(C2=C(c3ccc(O)cc3)C3CC(S(=O)(=O)Oc4cccc(Br)c4)C2O3)cc1 (centres undefined) | 0.59 |

Target: Estrogen receptor beta (Homo sapiens) (UniProt Q92731)
Sequence (Q92731 whole entry): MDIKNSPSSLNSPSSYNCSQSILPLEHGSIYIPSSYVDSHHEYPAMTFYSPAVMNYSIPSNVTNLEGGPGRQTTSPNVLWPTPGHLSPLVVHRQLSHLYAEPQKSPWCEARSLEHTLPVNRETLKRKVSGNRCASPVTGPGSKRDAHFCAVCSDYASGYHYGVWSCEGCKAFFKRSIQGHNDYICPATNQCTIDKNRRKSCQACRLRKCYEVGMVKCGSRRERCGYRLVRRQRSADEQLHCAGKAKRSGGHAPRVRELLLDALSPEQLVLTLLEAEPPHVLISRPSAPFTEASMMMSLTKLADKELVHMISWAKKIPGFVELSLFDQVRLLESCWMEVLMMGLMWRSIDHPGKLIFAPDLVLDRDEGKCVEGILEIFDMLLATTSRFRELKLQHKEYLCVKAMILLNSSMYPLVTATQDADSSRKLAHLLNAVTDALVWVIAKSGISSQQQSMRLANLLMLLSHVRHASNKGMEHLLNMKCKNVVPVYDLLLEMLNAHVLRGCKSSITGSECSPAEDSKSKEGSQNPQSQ
Experiment: Binding affinity to human ERbeta assessed as relative binding affinity incubated under vibration for 1 min followed by 2 hrs incubation under dark condition by fluorescence polarization assay relative to estradiol
Settings: time 121.0 min

| Compound | RBA [%] |
| --- | --- |
| N#C[Se]CCCCCC(=O)Nc1ccc(C2=C(c3ccc(O)cc3)C3CC(S(=O)(=O)Oc4ccccc4O)C2O3)cc1 (centres undefined) | 1.15 |
| COc1ccccc1OS(=O)(=O)C1CC2OC1C(c1ccc(NC(=O)CCCCC[Se]C#N)cc1)=C2c1ccc(O)cc1 (centres undefined) | 1.29 |
| N#C[Se]CCCCCC(=O)Nc1ccc(C2=C(c3ccc(O)cc3)C3CC(S(=O)(=O)Oc4ccc(C(F)(F)F)cc4)C2O3)cc1 (centres undefined) | 1.61 |
| N#C[Se]CCCCCC(=O)Nc1ccc(C2=C(c3ccc(O)cc3)C3CC(S(=O)(=O)Oc4ccc(O)cc4)C2O3)cc1 (centres undefined) | 0.73 |
| N#C[Se]CCCCCC(=O)Nc1ccc(C2=C(c3ccc(O)cc3)C3CC(S(=O)(=O)Oc4ccc(F)cc4)C2O3)cc1 (centres undefined) | 3.74 |
| N#C[Se]CCCCCC(=O)Nc1ccc(C2=C(c3ccc(O)cc3)C3CC(S(=O)(=O)Oc4cccc(Br)c4)C2O3)cc1 (centres undefined) | 0.31 |

Species: Homo sapiens
Experiment: Selectivity ratio of relative binding affinity for human ERalpha to relative binding affinity to human ERbeta
Settings: not given

| Compound | Selectivity ratio |
| --- | --- |
| N#C[Se]CCCCCC(=O)Nc1ccc(C2=C(c3ccc(O)cc3)C3CC(S(=O)(=O)Oc4ccccc4O)C2O3)cc1 (centres undefined) | 26.9 |
| COc1ccccc1OS(=O)(=O)C1CC2OC1C(c1ccc(NC(=O)CCCCC[Se]C#N)cc1)=C2c1ccc(O)cc1 (centres undefined) | 12.4 |
| N#C[Se]CCCCCC(=O)Nc1ccc(C2=C(c3ccc(O)cc3)C3CC(S(=O)(=O)Oc4ccc(C(F)(F)F)cc4)C2O3)cc1 (centres undefined) | 2.75 |
| N#C[Se]CCCCCC(=O)Nc1ccc(C2=C(c3ccc(O)cc3)C3CC(S(=O)(=O)Oc4ccc(O)cc4)C2O3)cc1 (centres undefined) | 10.7 |
| N#C[Se]CCCCCC(=O)Nc1ccc(C2=C(c3ccc(O)cc3)C3CC(S(=O)(=O)Oc4ccc(F)cc4)C2O3)cc1 (centres undefined) | 0.55 |
| N#C[Se]CCCCCC(=O)Nc1ccc(C2=C(c3ccc(O)cc3)C3CC(S(=O)(=O)Oc4cccc(Br)c4)C2O3)cc1 (centres undefined) | 1.9 |

System: MCF7
Experiment: Antiproliferative activity against ERalpha positive human MCF7 cells assessed as inhibition of cell proliferation incubated for 72 hrs by CCK8 assay
Type: functional, cell-based
Settings: MCF7, 72 h

| Compound | IC50 [µM] |
| --- | --- |
| COc1cc2c(c(OC)c1OC)-c1ccc(OC)c(=O)cc1[C@@H](NC(C)=O)CC2 [COLCHICINE] | 0.001 |
| N#C[Se]CCCCCC(=O)Nc1ccc(C2=C(c3ccc(O)cc3)C3CC(S(=O)(=O)Oc4ccccc4O)C2O3)cc1 (centres undefined) | 0.32 |
| COc1ccccc1OS(=O)(=O)C1CC2OC1C(c1ccc(NC(=O)CCCCC[Se]C#N)cc1)=C2c1ccc(O)cc1 (centres undefined) | 0.49 |
| N#C[Se]CCCCCC(=O)Nc1ccc(C2=C(c3ccc(O)cc3)C3CC(S(=O)(=O)Oc4ccc(C(F)(F)F)cc4)C2O3)cc1 (centres undefined) | 2.84 |
| N#C[Se]CCCCCC(=O)Nc1ccc(C2=C(c3ccc(O)cc3)C3CC(S(=O)(=O)Oc4ccc(O)cc4)C2O3)cc1 (centres undefined) | 1.5 |
| N#C[Se]CCCCCC(=O)Nc1ccc(C2=C(c3ccc(O)cc3)C3CC(S(=O)(=O)Oc4ccc(F)cc4)C2O3)cc1 (centres undefined) | 1.18 |
| N#C[Se]CCCCCC(=O)Nc1ccc(C2=C(c3ccc(O)cc3)C3CC(S(=O)(=O)Oc4cccc(Br)c4)C2O3)cc1 (centres undefined) | 1.23 |

System: T47D
Experiment: Antiproliferative activity against ERalpha positive human T47D cells assessed as inhibition of cell proliferation incubated for 72 hrs by CCK8 assay
Type: functional, cell-based
Settings: not given

| Compound | IC50 [µM] |
| --- | --- |
| COc1cc2c(c(OC)c1OC)-c1ccc(OC)c(=O)cc1[C@@H](NC(C)=O)CC2 [COLCHICINE] | 0.00028 |
| N#C[Se]CCCCCC(=O)Nc1ccc(C2=C(c3ccc(O)cc3)C3CC(S(=O)(=O)Oc4ccccc4O)C2O3)cc1 (centres undefined) | 3.58 |
| COc1ccccc1OS(=O)(=O)C1CC2OC1C(c1ccc(NC(=O)CCCCC[Se]C#N)cc1)=C2c1ccc(O)cc1 (centres undefined) | 1.8 |
| N#C[Se]CCCCCC(=O)Nc1ccc(C2=C(c3ccc(O)cc3)C3CC(S(=O)(=O)Oc4ccc(C(F)(F)F)cc4)C2O3)cc1 (centres undefined) | 3.02 |
| N#C[Se]CCCCCC(=O)Nc1ccc(C2=C(c3ccc(O)cc3)C3CC(S(=O)(=O)Oc4ccc(O)cc4)C2O3)cc1 (centres undefined) | 4.98 |
| N#C[Se]CCCCCC(=O)Nc1ccc(C2=C(c3ccc(O)cc3)C3CC(S(=O)(=O)Oc4ccc(F)cc4)C2O3)cc1 (centres undefined) | 1.43 |
| N#C[Se]CCCCCC(=O)Nc1ccc(C2=C(c3ccc(O)cc3)C3CC(S(=O)(=O)Oc4cccc(Br)c4)C2O3)cc1 (centres undefined) | 2.84 |

System: not listed separately
Experiment: Cytotoxicity against human MCF-10A cells assessed as inhibition of cell proliferation incubated for 72 hrs by CCK8 assay
Type: toxicity, cell-based
Settings: not given

| Compound | IC50 at 72 h [µM] |
| --- | --- |
| N#C[Se]CCCCCC(=O)Nc1ccc(C2=C(c3ccc(O)cc3)C3CC(S(=O)(=O)Oc4ccccc4O)C2O3)cc1 (centres undefined) | 7.49 |
| COc1ccccc1OS(=O)(=O)C1CC2OC1C(c1ccc(NC(=O)CCCCC[Se]C#N)cc1)=C2c1ccc(O)cc1 (centres undefined) | 7.37 |
| N#C[Se]CCCCCC(=O)Nc1ccc(C2=C(c3ccc(O)cc3)C3CC(S(=O)(=O)Oc4ccc(C(F)(F)F)cc4)C2O3)cc1 (centres undefined) | 16.2 |
| N#C[Se]CCCCCC(=O)Nc1ccc(C2=C(c3ccc(O)cc3)C3CC(S(=O)(=O)Oc4ccc(O)cc4)C2O3)cc1 (centres undefined) | 10.4 |
| N#C[Se]CCCCCC(=O)Nc1ccc(C2=C(c3ccc(O)cc3)C3CC(S(=O)(=O)Oc4ccc(F)cc4)C2O3)cc1 (centres undefined) | 11.5 |
| N#C[Se]CCCCCC(=O)Nc1ccc(C2=C(c3ccc(O)cc3)C3CC(S(=O)(=O)Oc4cccc(Br)c4)C2O3)cc1 (centres undefined) | 22.7 |

System: not listed separately
Experiment: Selectivity index, ratio of IC50 for cytotoxicity against human MCF-10A cells to IC50 for antiproliferative activity against human MCF7 cells
Type: toxicity, cell-based
Settings: MCF-10A cells and MCF7 cells, read-out: Ratio IC50

| Compound | selectivity ratio |
| --- | --- |
| N#C[Se]CCCCCC(=O)Nc1ccc(C2=C(c3ccc(O)cc3)C3CC(S(=O)(=O)Oc4ccccc4O)C2O3)cc1 (centres undefined) | 23.4 |
| COc1ccccc1OS(=O)(=O)C1CC2OC1C(c1ccc(NC(=O)CCCCC[Se]C#N)cc1)=C2c1ccc(O)cc1 (centres undefined) | 15 |
| N#C[Se]CCCCCC(=O)Nc1ccc(C2=C(c3ccc(O)cc3)C3CC(S(=O)(=O)Oc4ccc(C(F)(F)F)cc4)C2O3)cc1 (centres undefined) | 5.72 |
| N#C[Se]CCCCCC(=O)Nc1ccc(C2=C(c3ccc(O)cc3)C3CC(S(=O)(=O)Oc4ccc(O)cc4)C2O3)cc1 (centres undefined) | 6.94 |
| N#C[Se]CCCCCC(=O)Nc1ccc(C2=C(c3ccc(O)cc3)C3CC(S(=O)(=O)Oc4ccc(F)cc4)C2O3)cc1 (centres undefined) | 9.75 |
| N#C[Se]CCCCCC(=O)Nc1ccc(C2=C(c3ccc(O)cc3)C3CC(S(=O)(=O)Oc4cccc(Br)c4)C2O3)cc1 (centres undefined) | 18.5 |
